In patent US9840464B2, “IAP binding compounds” (TetraLogic Birinapant UK Ltd., priority 2004, dated 2017):
Counter-ions that a name gives are not always drawn.

Molecular target: XIAP-BIR3 (Homo sapiens, UniProt P98170)
Test: XIAP BIR3 fluorescence polarization binding assay (competition with AbuRPF-K(5-Fam)-NH2)
Conditions: 5 nM AbuRPF-K(5-Fam)-NH2, 40 nM XIAP-BIR3, pH 7.5; Kd calculated from measured IC50; read-out: KD Range
Method: Binding constants (Kd) were measured using fluorescence polarization as described by Zaneta Nikolovska-Coleska, Renxiao Wang, Xueliang Fang, Hongguang Pan, York Tomita, Peng Li, Peter P. Roller, Krzysztof Krajewski, Naoyuki Saito, Jeanne Stuckey and Shaomeng Wang, in “Development and Optimization of a Binding Assay for the XIAP BIR3 Domain Using Fluorescence Polarization”, Analytical Biochemistry 2004, 332, 261-273). Briefly, test IAP binding compounds at various concentrations for binding measurements were mixed with 5 nM fluorescently labeled peptide (AbuRPF-K(5-Fam)-NH2) and 40 nM of XIAP-BIR3 for 15 minutes at room temperature in 100 μL of 0.1M Potassium Phosphate buffer, pH 7.5 containing 100 μg/ml bovine γ-globulin. Following incubation, the polarization values (mP) were measured on a Victor^2V using a 485 nm excitation filter and a 520 nm emission filter. IC50 values were determined from the plot using nonlinear least-squares analysis using GraphPad Prism. The Kd values of competitive inhibitors were calculated using the equation described by Zaneta Nikolovska-Coleska et al. based upon the measured IC50 values, the Kd value of the probe and XIAP BIR3 complex, and the concentrations of the protein and probe in the competition assay. In various examples of IAP binding or IAP binding cargo molecules ranges for Kd values: Group A: Kd<0.1 μM; Group B: Kd=0.1-1 μM; Group C: Kd=1-10 μM; Group D: Kd>10 μM.

Chain of XIAP-BIR3 (P98170 241-356 limits assumed): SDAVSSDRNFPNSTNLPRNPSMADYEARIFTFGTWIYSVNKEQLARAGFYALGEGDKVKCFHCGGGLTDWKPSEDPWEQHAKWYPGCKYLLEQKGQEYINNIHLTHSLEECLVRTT

| Molecule | Kd [µM] |
| --- | --- |
| 2-Amino-N-{2-methyl-1-[2-(5-pyridin-2-yl-benzofuran-3-ylmethyl)-pyrrolidine-1-carbonyl]-propyl}-propionamide [Entry 8-79] | 1 to 10 |
| CC(C)[C@H](NC(=O)[C@H](C)N)C(=O)N1C[C@@H](Oc2ccccc2)C[C@H]1COc1ccccc1 [Entry 2-1, 2S-Amino-N-[2-methyl-1S-(4S-phenoxy-2S-phenoxymethyl-pyrrolidine-1-carbonyl)-propyl]-propionamide hydrochloride] | 0.1 to 1 |
| CN[C@@H](C)C(=O)N[C@H](C(=O)N1C[C@@H](Oc2ccccc2)C[C@H]1COc1ccccc1)C(C)C [Entry 2-2] | 0.1 to 1 |
| CC(N)C(=O)NC(C(=O)N1CCCC1COc1ccccc1)C(C)C (centres unmarked) [Entry 2-3] | 0.1 to 1 |
| CNC(C)C(=O)NC(C(=O)N1CCCC1COc1ccccc1-c1ccccc1)C(C)C (centres unmarked) [Entry 2-5] | 0.1 to 1 |
| CC(N)C(=O)NC(C(=O)N1CCCC1COc1ccccc1-c1ccccc1)C(C)C (centres unmarked) [Entry 2-6] | 0.1 to 1 |
| C#CCOC(C)[C@H](NC(=O)[C@H](C)N)C(=O)N1C[C@@H](Oc2ccccc2)C[C@H]1COc1ccccc1 (some centres unmarked) [Entry 2-7] | < 0.1 |
| CC(C)[C@H](NC(=O)[C@H](C)N)C(=O)N1C[C@@H](Oc2ccccc2)C[C@H]1/C=C/COc1ccccc1 [Entry 3-8] | 0.1 to 1 |
| CC(C)[C@H](NC(=O)[C@H](C)N)C(=O)N1C[C@@H](Oc2ccccc2)C[C@H]1/C=C/COc1ccccc1Br [Entry 3-9] | 0.1 to 1 |
| CC(C)[C@H](NC(=O)[C@H](C)N)C(=O)N1C[C@@H](Oc2ccccc2)C[C@H]1/C=C/COc1cccc(Cl)c1Cl [Entry 3-10] | 0.1 to 1 |
| CC(C)[C@H](NC(=O)[C@H](C)N)C(=O)N1C[C@@H](Oc2ccccc2)C[C@H]1/C=C/COc1ccc(Cl)cc1Cl [Entry 3-11] | 0.1 to 1 |
| CCc1ccccc1OC/C=C/[C@@H]1C[C@H](Oc2ccccc2)CN1C(=O)[C@@H](NC(=O)[C@H](C)N)C(C)C [Entry 3-12, trans-2S-Amino-N-(1S-{2S-[3-(2-ethyl-phenoxy)-propenyl]-4S-phenoxy-pyrrolidine-1-carbonyl}-2-methyl-propyl)-propionamide] | 0.1 to 1 |
| CN[C@@H](C)C(=O)N[C@H](C(=O)N1C[C@@H](Oc2ccccc2)C[C@H]1/C=C/COc1cccc(Cl)c1Cl)C(C)C [Entry 3-13] | 0.1 to 1 |
| CC(C)[C@H](NC(=O)[C@H](C)N)C(=O)N1C[C@@H](Oc2ccccc2)C[C@H]1/C=C/COc1cccc(Br)c1 [Entry 3-14] | 0.1 to 1 |
| CC(C)Oc1ccccc1OC/C=C/[C@@H]1C[C@H](Oc2ccccc2)CN1C(=O)[C@@H](NC(=O)[C@H](C)N)C(C)C [Entry 3-15] | 0.1 to 1 |
| CC(C)[C@H](NC(=O)[C@H](C)NC(=O)OC(C)(C)C)C(=O)N1C[C@@H](Oc2ccccc2)C[C@H]1/C=C/COc1ccc2c(c1)CCCC2 [Entry 3-16] | > 10 |
| COc1ccccc1OC/C=C/[C@@H]1C[C@H](Oc2ccccc2)CN1C(=O)[C@@H](NC(=O)[C@H](C)N)C(C)C [Entry 3-18] | 0.1 to 1 |
| COc1ccccc1OC/C=C/[C@@H]1C[C@H](Oc2ccccc2)CN1C(=O)[C@@H](NC(=O)CN)C(C)C [Entry 3-19] | > 10 |
| CC(C)[C@H](NC(=O)[C@H](C)N)C(=O)N1C[C@@H](Oc2ccccc2)C[C@H]1/C=C/COc1ccccc1-c1ccccc1 [Entry 3-20] | 0.1 to 1 |
| Cc1cccc(C)c1OC/C=C/[C@@H]1C[C@H](Oc2ccccc2)CN1C(=O)[C@@H](NC(=O)[C@H](C)N)C(C)C [Entry 3-22] | < 0.1 |
| CCc1ccccc1OCCC[C@H]1C[C@H](Oc2ccccc2)CN1C(=O)[C@@H](NC(=O)[C@H](C)N)C(C)C [Entry 4-25, 2S-Amino-N-(1S-{2S-[3-(2-ethyl-phenoxy)-propyl]-4S-phenoxy-pyrrolidine-1-carbonyl}-2-methyl-propyl)-propionamide] | 0.1 to 1 |
| CC(C)[C@H](NC(=O)[C@H](C)N)C(=O)N1CCC[C@H]1Cc1coc2ccccc12 [Entry 5-41, 2S-Amino-N-[1S-(2S-benzofuran-3-ylmethyl-pyrrolidine-1-carbonyl)-2-methyl-propyl]-propionamide] | < 0.1 |

Next, values leading:

| Kd [µM] | Molecule |
| --- | --- |
| > 10 | CC(N)C(=O)NC(C(=O)N1CCCC1CCCOc1ccccc1-c1ccccc1)C(C)C (single isomer, unassigned) [Entry 4-36] |
| 1 to 10 | CC(N)C(=O)NC(C(=O)N1CC(Oc2ccccc2)CC1Cc1coc2ccccc12)C(C)C (single isomer, unassigned) [Entry 5-53] |
| 0.1 to 1 | CCc1ccccc1OCCC[C@@H]1C[C@H](Oc2ccccc2)CN1C(=O)[C@@H](NC(=O)[C@H](C)NC)C(C)C [Entry 4-26] |
| > 10 | CCc1ccccc1OCCCC1CC(Oc2ccccc2)CN1C(=O)C(NC(=O)CN)C(C)C (centres unmarked) [Entry 4-27] |
| 0.1 to 1 | CCc1ccccc1OCCC[C@@H]1C[C@H](Oc2ccccc2)CN1C(=O)[C@@H](NC(=O)[C@H](C)NC)C(C)(C)C [Entry 4-28] |
| 0.1 to 1 | CC(C)Oc1ccccc1OCCC[C@@H]1C[C@H](Oc2ccccc2)CN1C(=O)[C@@H](NC(=O)[C@H](C)N)C(C)C [Entry 4-29] |
| 0.1 to 1 | CC(C)c1ccccc1OCCC[C@@H]1C[C@H](Oc2ccccc2)CN1C(=O)[C@@H](NC(=O)[C@H](C)N)C(C)C [Entry 4-30] |
| 0.1 to 1 | Cc1cccc(C)c1OCCC[C@@H]1C[C@H](Oc2ccccc2)CN1C(=O)[C@@H](NC(=O)[C@H](C)N)C(C)C [Entry 4-31] |
| 0.1 to 1 | CC(C)[C@H](NC(=O)[C@H](C)N)C(=O)N1CCC[C@H]1CCCOc1ccccc1-c1ccccc1 [Entry 4-32] |
| 1 to 10 | CCc1ccccc1OCCCC1CCCN1C(=O)C(NC(=O)C(C)N)C(C)C (centres unmarked) [Entry 4-34] |
| 1 to 10 | CC(C)Oc1ccccc1OCCCC1CCCN1C(=O)C(NC(=O)C(C)N)C(C)C (centres unmarked) [Entry 4-35] |
| 1 to 10 | CC(N)C(=O)NC(C(=O)N1CCCC1CCCOc1ccccc1)C(C)C (centres unmarked) [Entry 4-37] |
| > 10 | Cc1cccc(C)c1OCCCC1CCCN1C(=O)C(NC(=O)C(C)N)C(C)C (centres unmarked) [Entry 4-38] |
| < 0.1 | CC(C)[C@H](NC(=O)[C@H](C)N)C(=O)N1C[C@@H](Oc2ccccc2)C[C@H]1Cc1coc2ccccc12 [Entry 5-39] |
| < 0.1 | C[C@H](N)C(=O)N[C@H](C(=O)N1C[C@@H](Oc2ccccc2)C[C@H]1Cc1coc2ccccc12)C(C)(C)C [Entry 5-40] |
| < 0.1 | CN[C@@H](C)C(=O)N[C@H](C(=O)N1C[C@@H](Oc2ccccc2)C[C@H]1Cc1coc2ccccc12)C1CCCCC1 [Entry 5-43] |
| < 0.1 | CC[C@H](N)C(=O)N[C@H](C(=O)N1C[C@@H](Oc2ccccc2)C[C@H]1Cc1coc2ccccc12)C(C)C [Entry 5-44] |
| < 0.1 | CN[C@@H](C)C(=O)N[C@H](C(=O)N1C[C@@H](Oc2ccccc2)C[C@H]1Cc1coc2ccccc12)C(C)C [Entry 5-45] |
| > 10 | CC(C)C(NC(=O)CN)C(=O)N1CCCC1Cc1coc2ccccc12 (centres unmarked) [Entry 5-46] |

| Kd [µM] | Molecule |
| --- | --- |
| < 0.1 | CC(N)C(=O)NC(C(=O)N1CCCC1Cc1coc2ccccc12)C1CCCCC1 (centres unmarked) [Entry 5-47] |
| 1 to 10 | CC(C)C(NC(=O)CN)C(=O)N1CC(Oc2ccccc2)CC1Cc1coc2ccccc12 (centres unmarked) [Entry 5-52] |
| < 0.1 | CC[C@H](NC(=O)[C@H](C)N)C(=O)N1C[C@@H](Oc2ccccc2)C[C@H]1Cc1coc2ccccc12 [Entry 5-54] |
| 0.1 to 1 | CC[C@H](NC(=O)[C@@H](N)CC)C(=O)N1C[C@@H](Oc2ccccc2)C[C@H]1Cc1coc2ccccc12 [Entry 5-55] |
| 0.1 to 1 | CC[C@H](N)C(=O)N[C@H](C(=O)N1C[C@@H](Oc2ccccc2)C[C@H]1Cc1coc2ccccc12)C1CCCCC1 [Entry 5-56] |
| < 0.1 | CNC(C)C(=O)NC(C(=O)N1CCCC1Cc1coc2ccccc12)C(C)C (centres unmarked) [Entry 5-57] |
| 0.1 to 1 | CCC(N)C(=O)NC(C(=O)N1CCCC1Cc1coc2ccccc12)C(C)C (centres unmarked) [Entry 5-58] |
| 0.1 to 1 | CCC(NC(=O)C(C)N)C(=O)N1CCCC1Cc1coc2ccccc12 (centres unmarked) [Entry 5-59] |
| < 0.1 | C#CCOC(C)[C@H](NC(=O)[C@H](C)N)C(=O)N1CCC[C@H]1Cc1coc2ccccc12 (some centres unmarked) [Entry 5-60] |
| < 0.1 | CC(N)C(=O)NC(C(=O)N1CCCC1Cc1coc2ccc(Cl)cc12)C(C)C (centres unmarked) [Entry 5-61] |
| < 0.1 | CNC(C)C(=O)NC(C(=O)N1CCCC1Cc1coc2ccc(Cl)cc12)C(C)C (centres unmarked) [Entry 5-62] |
| > 10 | CC(C)C(NC(=O)C(C)(C)N)C(=O)N1CCCC1Cc1coc2ccccc12 (centres unmarked) [Entry 5-64] |
| > 10 | CC(=O)NC(C)C(=O)NC(C(=O)N1CCCC1Cc1coc2ccccc12)C(C)C (centres unmarked) [Entry 5-65] |
| > 10 | CC(NC=O)C(=O)NC(C(=O)N1CCCC1Cc1coc2ccccc12)C(C)C (centres unmarked) [Entry 5-67] |
| 1 to 10 | CCNC(C)C(=O)NC(C(=O)N1CCCC1Cc1coc2ccccc12)C(C)C (centres unmarked) [Entry 5-68] |
| 1 to 10 | CC(NCC1CC1)C(=O)NC(C(=O)N1CCCC1Cc1coc2ccccc12)C(C)C (centres unmarked) [Entry 5-70] |
| > 10 | CC(C)C(NC(=O)C1CCCN1)C(=O)N1CCCC1Cc1coc2ccccc12 (centres unmarked) [Entry 5-74] |
| 1 to 10 | CC(N)C(=O)NC(C(=O)N1CCCC1Cc1coc2ccc(O)cc12)C(C)C (centres unmarked) [Entry 6-75, 2-Amino-N-{1-[2-(5-hydroxy-benzofuran-3-ylmethyl)-pyrrolidine-1-carbonyl]-2-methyl-propyl}-propionamide] |
